The values below come from PubChem BioAssay AID2202554 (NIEHS Division of Translational Toxicology (DTT)).

Results filed as inconclusive are left out. Calls of active or inactive are those of the source. How the calls were made is not given here.

In this data set the test system is S. typhimurium/E. coli reverse mutation, colony counts. Briefly: Bacterial reverse mutation test (aka Ames test) summary data. The essentials: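 Revertant colony counts on plates, compared with untreated controls, after about two days of growth. Exposure with or without liver S9 (rat/hamster/mouse), dose range per strain, 20-min 37° C preincubation or direct plate incorporation. Strains: his⁻ Salmonella, trp⁻ E. coli WP2 uvrA pKM101.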
(In the Ames test, an excess of revertant colonies over the control signals mutagenicity.)
Consider `Cc1c(C(=O)O)c(O)cc2c1C(=O)c1c(O)c([C@@H]3O[C@H](CO)[C@@H](O)[C@H](O)[C@H]3O)c(O)c(O)c1C2=O`, for which the outcome was “active; weakly positive”.

For the compound `O=C(O)c1ccc(S(=O)(=O)N(Cl)Cl)cc1`, the outcome is “active; positive”.

Consider `Oc1ccc(Cl)cc1`, for which the outcome was “inactive; negative”. For `OCC(CO)(CCBr)CCBr` the value was “active; positive”. The entry for `CCCCCCc1ccc(O)cc1O` is “inactive; negative”; for `Nc1c(N=Nc2ccc([N+](=O)[O-])cc2)c(S(=O)(=O)O)cc2cc(S(=O)(=O)O)c(N=Nc3ccccc3)c(O)c12` it is “active; positive”; for `Nc1nc2ncc(CNc3ccc(C(=O)N[C@@H](CCC(=O)O)C(=O)O)cc3)nc2c(=O)[nH]1` it is “inactive; negative”. Turning to `NC(=S)NNC(N)=S`, the outcome was “inactive; negative”. In the case of `CCCCNCC`, the outcome is “inactive; negative”. Consider `O=C(OC1CCCCC1)c1ccccc1C(=O)OC1CCCCC1`, for which the outcome was “inactive; negative”. For `C=CC(=O)OCCOCCOCCOCCOC(=O)C=C` the value was “inactive; negative”; for `c1ccc2c(c1)Oc1ccccc1S2`, “inactive; negative”. For `CCBr` the value was “active; positive”; for `O.O.O.O.O.O.O.O=S(=O)([O-])[O-].[Co+2]`, “active; weakly positive”. With `CNCCO`, the outcome is “inactive; negative”. Turning to `COc1cc(CNC(=O)CCCC/C=C/C(C)C)ccc1O`, the outcome was “inactive; negative”.

For the compound `Oc1c(Br)cc(Br)cc1Br`, the outcome is “inactive; negative”. For `CCOP(=S)(OCC)Oc1ccc([N+](=O)[O-])cc1`, the outcome is “active; weakly positive”. For `Oc1ccccc1Cl` the value was “inactive; negative”. The entry for `CN(C)c1ccc(Cc2ccc(N(C)C)cc2)cc1` is “active; positive”.

On to `C=C`, for which the outcome is “inactive; negative”. In the case of `CCOC(C)OCC`, the outcome was “active; positive”. For the compound `C=CCCC#N`, the outcome was “inactive; negative”. Take `O=C1CSC(=S)N1`: the outcome was “inactive; negative”. For `NC(=O)c1cccnc1` the value was “inactive; negative”; for `CC(C)COC(=O)COc1cc(Cl)c(Cl)cc1Cl`, “inactive; negative”; for `C=CCCCC`, “inactive; negative”.

As to `COc1ccc(N=[N+]([O-])c2ccc(OC)cc2)cc1`, the outcome is “active; positive”. With `CC#N`, the outcome is “inactive; negative”.

As for `CC(O)CO` (stereo not given), the outcome is “inactive; negative”. For `CC(C)=CCCC(C)CCO` (stereo not given) the value was “inactive; negative”; for `CC(C)(Cl)[N+](=O)[O-]`, “active; weakly positive”; for `CCOCCO`, “inactive; negative”. For `CC(C)C#N` the value was “inactive; negative”; for `CC[Si](Cl)(Cl)CC`, “inactive; negative”. With `Oc1ccccc1O`, the outcome is “inactive; negative”. The entry for `CCCC[N+]1(C)CCCC1` is “inactive; negative”; for `CC(C)S` it is “inactive; negative”. For `CC(=O)Nc1ccc(O)cc1` the value was “inactive; negative”. The entry for `CCCCC(CC)COC(=O)c1ccc(C(=O)OCC(CC)CCCC)c(C(=O)OCC(CC)CCCC)c1` (stereo not given) is “inactive; negative”. Turning to `Nc1ccccc1-c1ccccc1`, the outcome was “active; positive”. For the compound `O=C(O)C(Br)Br`, the outcome is “active; positive”. The entry for `ONc1ccccc1` is “active; positive”. Consider `CC1=CC(=O)CC(C)(C)[C@@]1(O)/C=C/C(C)=C\C(=O)O`, for which the outcome was “inactive; negative”. The entry for `CSCCC=O` is “inactive; negative”. As for `O=c1n(CC2CO2)c(=O)n(CC2CO2)c(=O)n1CC1CO1` (stereo not given), the outcome was “active; positive”.

Take `COCCOC(=O)c1ccccc1C(=O)OCCOC`: the outcome was “active; positive”. The entry for `C=C(C#N)C(=O)OC` is “active; positive”; for `CC1=C(/C=C/C(C)=C/C=C/C(C)=C/C=C/C=C(C)/C=C/C=C(C)/C=C/C2=C(C)CCCC2(C)C)C(C)(C)CCC1` it is “active; positive”; for `ClCC(Cl)CCl` it is “active; positive”. The entry for `ON=C1CCCCC1` is “active; positive”; for `Cc1ccc(N)c([N+](=O)[O-])c1` it is “active; positive”. Take `Nc1ccccc1S(=O)(=O)O`: the outcome was “active; weakly positive”.

Turning to `CCCN(CCC)CCC`, the outcome was “inactive; negative”.

Take `CCCCOCC1CO1` (stereo not given): the outcome is “active; positive”.

With `N#CCc1ccccc1`, the outcome was “inactive; negative”. The entry for `CC(=O)NS(=O)(=O)c1ccc(N)cc1` is “inactive; negative”.

With `O=C1O[C@H]([C@@H](O)CO)C(O)=C1O`, the outcome is “active; weakly positive”. The entry for `CNC(=O)ON=CC(C)(C)SC` is “inactive; negative”; for `Cc1cc(-c2ccc(N)c(C)c2)ccc1N` it is “active; positive”. The entry for `Cc1c(N)cccc1N` is “active; positive”; for `O=c1cc(O)nc[nH]1` it is “inactive; negative”; for `N#C/C=C/C#N` it is “inactive; negative”. For `C=CC1CO1` (stereo not given) the value was “active; positive”; for `C=CCCCCCC`, “inactive; negative”. Consider `Clc1ccc(C(c2ccc(Cl)cc2)C(Cl)(Cl)Cl)cc1`, for which the outcome was “inactive; negative”.

In the case of `CC(C)CC(C)Nc1ccc(Nc2ccccc2)cc1` (stereo not given), the outcome was “inactive; negative”. Consider `COc1cc([C@H]2Oc3cc([C@H]4Oc5cc(O)cc(O)c5C(=O)[C@@H]4O)ccc3O[C@@H]2CO)ccc1O`, for which the outcome is “inactive; negative”. The entry for `CC(C)(C)c1ccc(O)c(O)c1` is “inactive; negative”. For the compound `CC(C)CCC(C)Nc1ccc(NC(C)CCC(C)C)cc1` (stereo not given), the outcome is “inactive; negative”. For `CCCCCCC(=O)OCC` the value was “inactive; negative”; for `O=S(=O)(O)c1ccc(N=Nc2c(O)ccc3cc(S(=O)(=O)O)ccc23)cc1`, “inactive; negative”. `C[N+](C)(C)CCO`: the outcome was “inactive; negative”. For `Nc1ccc(N)c2c1C(=O)c1c(N)ccc(N)c1C2=O` the value was “active; positive”.

Consider `C=CC(=O)O`, for which the outcome is “inactive; negative”. On to `CCCCNC(=O)n1c(NC(=O)OC)nc2ccccc21`, for which the outcome is “inactive; negative”. For the compound `CCCCCCCCCC(=O)O`, the outcome is “inactive; negative”. For `C=CC(C)(O)CCC=C(C)C` (stereo not given) the value was “inactive; negative”. For `Cc1ccc2c(c1N)C(=O)c1ccccc1C2=O` the value was “active; positive”. The entry for `C=C(C)C(=O)OCC(C)C` is “inactive; negative”; for `C1CNCCN1` it is “inactive; negative”; for `C=C(C)[C@@]12O[C@@]3(c4ccccc4)O[C@@H]1[C@@H]1[C@@H]4O[C@]4(CO)[C@@H](O)[C@]4(O)C(=O)C(C)=C[C@H]4[C@@]1(O3)[C@H](C)[C@H]2OC(=O)/C=C/C=C/c1ccccc1` it is “inactive; negative”. Turning to `O=C1Nc2ccc(S(=O)(=O)O)cc2C1=O`, the outcome is “active; positive”. The entry for `CCCCN(CC)CC` is “inactive; negative”; for `CC(O)CN(C)C` (stereo not given) it is “inactive; negative”; for `C=C(Cl)Cl` it is “inactive; negative”. For `S=C=S` the value was “inactive; negative”; for `Oc1ccc(Cl)c(Cl)c1`, “inactive; negative”; for `Clc1ccc(Cl)c(Cl)c1Cl`, “inactive; negative”.

As for `O=[N+]([O-])c1ccc(Cl)cc1Cl`, the outcome was “active; positive”. The entry for `CCCCCCCC/C=C\CCCCCCCC(=O)O` is “inactive; negative”; for `Nc1ccc(Cl)cc1` it is “active; positive”. The entry for `CCOCCOCC` is “active; positive”.

Take `COc1ccc([N+](=O)[O-])cc1N=Nc1c(O)c(C(=O)Nc2cccc([N+](=O)[O-])c2)cc2ccccc12`: the outcome is “active; positive”.

As for `Nc1ccc([N+](=O)[O-])c(N)c1`, the outcome is “active; positive”. For `Clc1cc2c(cc1Cl)Oc1cc(Cl)c(Cl)cc1O2` the value was “inactive; negative”. The entry for `Nc1ccc([N+](=O)[O-])cc1[N+](=O)[O-]` is “active; positive”.

As to `CC(=O)OC(C)=O`, the outcome was “inactive; negative”. For `CCCCC(CC)COC(=O)CCCCC(=O)O` (stereo not given) the value was “inactive; negative”; for `C=C[C@H]1CN2CC[C@H]1C[C@@H]2[C@@H](O)c1ccnc2ccc(OC)cc12`, “inactive; negative”; for `O=S(=O)(O)C(F)(F)C(F)(F)C(F)(F)C(F)(F)C(F)(F)C(F)(F)C(F)(F)C(F)(F)F`, “inactive; negative”. Consider `CCN(Cc1ccccc1)c1ccccc1`, for which the outcome is “inactive; negative”.

As to `NS(=O)(=O)c1cc2c(cc1Cl)NCNS2(=O)=O`, the outcome was “inactive; negative”.

`c1ccc(CSCc2ccccc2)cc1`: the outcome is “inactive; negative”. For `CC(=O)CC(=O)Nc1ccccc1` the value was “inactive; negative”.

Regarding `CCCCCCCCCCCCCCCCCCCC`, the outcome was “inactive; negative”. As for `OC1CCCCC1`, the outcome was “inactive; negative”. As for `CNNCc1ccc(C(=O)NC(C)C)cc1`, the outcome is “inactive; negative”. For `C=CCC` the value was “inactive; negative”; for `NC(=O)/C(=C\c1ccc([N+](=O)[O-])o1)c1ccco1`, “active; positive”.
